Entries after “also recorded” stand apart in the source; their conditions may differ. Read-outs that look alike come from different tables or passages of the source.
Key:
healthy CD-1 mice [1] = experiment: In vivo biodistribution imaging after systemic administration; details: for pancreas penetration / specificity: normal pancreas, systemic administration; for clearance route and rate: 100 nmol i.v. (MB 120 nmol); for organ accumulation (in vivo biodistribution): 100 nmol i.v., 4 h distribution phase
Method: (§3) Animals. Approval for the use of all animals in this study was obtained from the Institutional Animal Care and Use Committee (IACUC) at Oregon Health and Science University (OHSU). Male CD-1 mice weighing 22-24 g were purchased from Charles River Laboratories (Wilmington, MA). […] All animals were placed on 5V75 chlorophyll free diet from TestDiet (St. Louis, Mo.) 1 week prior to any imaging studies. Prior to surgery, mice were anaesthetized with 100 mg/kg ketamine and 10 mg/kg xylazine (Patterson Veterinary, Devens, Mass.). The peritoneal cavity was surgically exposed by removal of overlaying skin and muscle tissue to image fluorophore biodistribution following intravenous injection.
(§4) Intraoperative fluorescence imaging system. In vivo murine biodistribution images and macroscopic images of resected tissues were acquired using a custom-built small animal imaging system capable of real time color and fluorescence imaging. The imaging system consists of a QImaging EXi Blue monochrome camera (Surrey, British Columbia, Calif.) for fluorescence detection with a removable Bayer filter for collecting co-registered color and fluorescence images. A PhotoFluor II light source (89 North, Burlington, Vt.) was focused onto the surgical field through a liquid light guide and used unfiltered for white light illumination. […] All filters were obtained from Chroma technology (Bellows Falls, Vt.). Camera exposure times ranged from 50 to 200 ms for fluorescence image collection.
(§5) Systemic administration of fluorescent compounds. […] Fluorophores were diluted in PBS. For comparison with previous studies, 120 nmol Methylene Blue was injected systemically. Mice were administered blank PBS for control images (n=3 mice per group, 5 groups).
(§6) In vivo biodistribution imaging. […] The peritoneal cavity was exposed and images were collected so that the bladder, adipose tissue, intestine, kidney, liver, muscle, pancreas, spleen, and stomach were visible within the field of view. For initial biodistribution studies images were collected immediately after injection and at 5, 15, 30, 60, 120, and 240 min following injection. […] Vehicle injected control animals were imaged on the same time course as fluorophore injected animals for initial testing or immediately following injection only for studies involving MB or PDAC tumor bearing mice to assess tissue autofluorescence for comparison to injected animals.
(§7) Fluorophore biodistribution kinetics were measured using region of interest analysis on images collected of the peritoneal cavity. Mean fluorescence intensities in each organ or tissue type were measured from images collected at each time point. All intensities were normalized to the muscle intensity at that time point by dividing by the measured muscle intensity. Using the normalized fluorescence intensities for each organ or tissue type, mean intensities were calculated for each group.
(§8) Upon completion of initial biodistribution studies, animals were euthanized and their organs were resected.

healthy CD-1 mice [2] = details: mouse, in vivo, iv
Method: as §3, §4, §5, §6, §7, §8

Capan-1 cells [3] = experiment: Subcellular localization by live cell imaging with organelle trackers; assay type: cell-based, human; details: Capan-1, 0.5 μM, 1 h incubation
Method: In vitro live cell imaging. Monolayers of 10^4 Capan-1 cells were seeded in triplicate in 8 well plates and incubated for 24 h in growth media containing 10% FBS and allowed to attach. For subcellular colocalization experiments, media was extracted and cells were washed with PBS, and phenol red-free growth medium was added to each well. Organelle trackers were added to each well, and incubated with the compound (final concentration 0.5 μM) of interest for 1 h. Cells were then washed with PBS and then fixed with 2% paraformaldehyde (PFA). Fluorescence microscopy was carried out using a Zeiss inverted microscope with an Axioscan fluorescence camera for imaging. Final concentration of organelle trackers used in this experiments, DAPI (4,6-diamidino-2-phenylindole) 0.5 μM, MitoTracker® Green (benzoxazolium 2-[3-[5,6-dichloro-1,3-bis[[4-(chloromethyl)-phenyl]methyl]-1,3-dihydro-2H-benzimidazol-2-ylidene]-1-propenyl]-3-methyl-chloride 201860-17-5v, ThermoFisher Scientific) 0.5 μM, and ER-Tracker™ Green (BODIPY® FL dye and glibenclamide; ThermoFisher Scientific) 1 μM.
The subcellular localization of 2, 12 and 13 was investigated in Capan-1 cells after 1 h incubation time. […] FIGS. 6A, 7A, and 8A show the red fluorescence of the three compounds, respectively, as well as blue fluorescence with DAPI (4,6-diamidino-2-phenylindole) FIGS. 6C, 7C, 8C) and green fluorescence with organelle-specific fluorescent probes—ER-Tracker™ Green (BODIPY® FL dye and glibenclamide; ThermoFisher Scientific) (FIGS. 6E, 7E, 8E) and MitoTracker® Green (benzoxazolium 2-[3-[5,6-dichloro-1,3-bis[[4-(chloromethyl)-phenyl]methyl]-1,3-dihydro-2H-benzimidazol-2-ylidene]-1-propenyl]-3-methyl-chloride201860-17-5v; ThermoFisher Scientific) (FIGS. 6G, 7G, 8G). Also shown are composite overlays of (i) phase contrast+compound fluorescence (FIGS. 6B, 7B, 8B), (ii) DAPI+compound fluorescence (FIGS. 6D, 7D, 8D), (iii) DAPI+ER-Tracker™ Green+compound fluorescence (FIGS. 6F, 7F, 8F), and (iv) DAPI+MitoTracker® Green+compound fluorescence (FIGS. 6H, 7H, 8H).

Capan-1 cells [4] = experiment: Cell viability by CellTiter-Blue assay; assay type: cell-based, human; details: Capan-1, 24 h incubation, read-out: IC50 (cytotoxicity, cell viability)
Method: (§1) Cell culture. The human PDAC cell line Capan-1 was obtained from Dr. Rosalie Sears' laboratory and maintained in RPMI medium (Gibco) in a humid atmosphere at 37° C. with 5% CO2. All media were supplemented with 10% (v/v) fetal bovine serum (FBS), and 1% (v/v) penicillin/streptomycin. The cell viability was determined by Cell Titer-Blue® assay (Promega Corporation). Monolayers of 10^4 Capan-1 cells were seeded in triplicate in 96 well plates and incubated with decreasing concentration from 100 μM of each compound in growth media containing 10% FBS. After 24 h incubation time, 20 μL of CellTiter-Blue® reagent was added into each well, and culture cells were incubated for additional 2 h. Fluorescence intensity in each well was recorded at 560/590 nm in a SpectraMax® M5 Microplate Reader (Molecular Devices, LLC). The half maximal inhibitory concentration (IC50) of these three compounds were determined from interpolating values in the graph (% cell viability vs. fluorophore concentration). For comparison of cellular uptake rate in Capan-1 cells, absorbance of media was measured as background, and absorbance of supernatant was obtained to determine the cellular uptake by using absorbance of 10 μM fluorophore in cell free media as standard reference.
In vitro cell viability was assessed for compounds 2, 12 and 13 in a representative PDAC cell line, Capan-1. […]

Capan-1 cells [5] = experiment: In vitro time-dependent fluorophore uptake; assay type: cell-based, human; details: Capan-1, 10 μM
Method: as §1
In vitro time-dependent fluorophore uptake was also investigated in Capan-1 cells. […]

[6] = UV-Vis absorption and fluorescence spectroscopy; assay type: physicochemical; set-up: Brightness: unit not given here; details: for pH and solvent sensitivity of UV and fluorescence spectra: 10-15 μM, aqueous 10% DMSO with HCl, NaOH or pH 7.4 buffer, various solvents; for Extinction coefficient / λmax abs: 10% DMSO
Description: UV-Vis absorption and fluorescence spectroscopy. UV-Vis spectra were collected with a Cary 50 UV-Vis spectrophotometer at room temperature, using a 1-cm quartz cuvette. Fluorescence spectra were collected on a Cary Eclipse fluorescence spectrophotometer (Agilent Technologies). All absorbance spectra were reference corrected. Fluorescence spectra were corrected for the wavelength dependent response of the R928 photomultiplier tube using a manufacturer generated correction file. Quantum yields are reported as the average of multiple measurements using multiple references. Excitation emission matrices (EEMs) were collected over various spectral regions, using 5-nm step sizes for emission and 10-nm step sizes for excitation. The band pass for excitation and emission was 5 to 10 nm.
(§2) Probes 1-13 were screened for pH and solvent sensitivity. Solvent sensitivity or dependence is at least partially attributable to differences in the equilibria between tautomeric forms of the compounds in the various solvents evaluated. The fluorophore concentrations ranged from 10-15 μM. Aqueous solutions contained 10% DMSO and 12.5 mM HCl, 12.5 mM NaOH, or pH 7.4 phosphate buffer.

[7] = pKa of ionizable fluorophores (pH sensitivity screening); assay type: physicochemical; details: aqueous solutions with 10% DMSO; Table 5
Method: as §2

[8] = pH 7.4 buffer, excited at 630 nm
[9] = pH 7.4 buffer, seminaphthorhodamines
[10] = pH 7.4 phosphate buffer, seminaphthorhodamines
[11] = basic solution pH 12.1, NaOH, 15 μM
[12] = conjugate acid, acidic solution pH 1.9, HCl, 15 μM

For `CN(C)c1ccc2nc3ccc(=[N+](C)C)cc-3sc2c1` [MB, methylene blue, reference compound], the “pancreas penetration / specificity” value (healthy CD-1 mice [1]) was “poor penetration into normal pancreas tissue; also recorded: diminished pancreas accumulation” and the “clearance route and rate” value (healthy CD-1 mice [2]) was “preferentially and rapidly cleared through the renal system”.

With `COC(=O)c1ccccc1C1=c2cc3c4c(c2Oc2c1ccc1cccc(N)c21)CCC[N+]=4CCC3` [Compound 13, 15-amino-9-(2-(methoxycarbonyl)phenyl)-1,2,3,5,6,7-hexahydrobenzo[7,8]chromeno[2,3-f]pyrido[3,2,1-ij]quinolin-4-ium chloride] the “site of intracellular localization” value (Capan-1 cells [3]) was “extensive accumulation in the mitochondria”, the “clearance route and rate” value (healthy CD-1 mice [1]) was “cleared more slowly than compound 2” and the “organ accumulation (in vivo biodistribution)” value (healthy CD-1 mice [1]) was “accumulated largely in the kidneys”. For the same molecule, the “pancreas penetration / specificity” value (healthy CD-1 mice [1]) was “diminished pancreas accumulation”, the IC50 (Capan-1 cells [4]) was 26.1 µM and the “fluorophore uptake within 30 min of application (ranking)” value (Capan-1 cells [5]) was “greatest fluorophore uptake”. The “pH and solvent sensitivity of UV and fluorescence spectra” value (from here on “pH and solvent sensitivity”) [6] was “not pH dependent, but were modestly solvent sensitive”, the Quantum yield [6, 8] was 0.66% and the λmax em [6, 8] was 740 nm. The Brightness [6, 9] was 85, the Stokes shift [6, 9] was 139 nm and the Extinction coefficient [6, 10] was 12808 M⁻¹ cm⁻¹. The λmax abs [6, 10] was 601 nm.

For `COC(=O)c1ccccc1-c1c2ccc(=O)cc-2oc2c1ccc1cccc(N(C)C)c12` [Compound 8, methyl 2-(1-(dimethylamino)-10-oxo-10H-benzo[c]xanthen-7-yl)benzoate], the pKa [7] was 4.36 +/− 0.04, the “pH and solvent sensitivity” value [6] was “not affected by either solvent changes or by solution pH values above 2” and the Stokes shift ([6]; basic solution pH 12.1, NaOH) was 21 nm. It also gave a λmax em ([6]; basic solution pH 12.1, NaOH) of 530 nm, an Extinction coefficient [6, 11] of 8834 M⁻¹ cm⁻¹ and a λmax abs [6, 11] of 530 nm. The Extinction coefficient [6, 12] was 10132 M⁻¹ cm⁻¹, the λmax abs [6, 12] was 480 nm and the Stokes shift ([6]; conjugate acid, pH 1.9, HCl) was 100 nm. For the same molecule, the λmax em ([6]; conjugate acid, pH 1.9, HCl) was 580 nm.

In the case of `COC(=O)c1ccccc1-c1c2ccc(=O)cc-2oc2c1ccc1cccc(OC)c12` [Compound 2], the “site of intracellular localization” value (Capan-1 cells [3]) is reported as “within vesicular structures”, the “clearance route and rate” value (healthy CD-1 mice [1]) is reported as “significant renal clearance; also recorded: faster renal clearance than compounds 12 and 13” and the “organ accumulation (in vivo biodistribution)” value (healthy CD-1 mice [1]) is reported as “preferentially accumulated in the pancreas, intestine and bladder”. The “pancreas penetration / specificity” value (healthy CD-1 mice [1]) was “improved pancreas specificity”, the “fluorophore uptake within 30 min of application (ranking)” value (Capan-1 cells [5]) was “the lowest” and the “pH and solvent sensitivity” value [6] was “not affected by either solvent changes or by solution pH values above 2”. For the same molecule, the Extinction coefficient ([6]; pH 7.4 phosphate buffer, methyl ether derivatives) was 15,610 M^−1 · cm^−1.
